In patent publication US20240360151A1 (SANOFI, priority 2023, published 2024):
Structures can show the parent of a compound that is named as a salt.

Target: T1, NLRP3 inflammasome (Homo sapiens, UniProt Q96P20)
T1 construct: endogenous in cells; host or cells: THP-1 monocytic cells
Assay: IL-1β secretion assay (NLRP3 IC50) in LPS-primed, nigericin-activated THP-1 cells, HTRF
Type: cell-based
Settings: monocytic THP-1 cells; LPS 10 ng/mL 3 h priming, then compound + nigericin 10 μM 2 h; relative IC50, 10 concentrations, geometric mean
Procedure, shortened: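 IL-1β in supernatant read by HTRF after 2 h co-incubation of compound (0.1% DMSO, 10 concentrations, 1:3 series) with nigericin at 10 μM final, following 3 h LPS (10 ng/mL) priming of THP-1 monocytes at 37° C. Inhibition normalised to unactivated and no-compound controls; geometric-mean relative IC50 from 4-parameter logistic model.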

T1 sequence (Q96P20 whole entry): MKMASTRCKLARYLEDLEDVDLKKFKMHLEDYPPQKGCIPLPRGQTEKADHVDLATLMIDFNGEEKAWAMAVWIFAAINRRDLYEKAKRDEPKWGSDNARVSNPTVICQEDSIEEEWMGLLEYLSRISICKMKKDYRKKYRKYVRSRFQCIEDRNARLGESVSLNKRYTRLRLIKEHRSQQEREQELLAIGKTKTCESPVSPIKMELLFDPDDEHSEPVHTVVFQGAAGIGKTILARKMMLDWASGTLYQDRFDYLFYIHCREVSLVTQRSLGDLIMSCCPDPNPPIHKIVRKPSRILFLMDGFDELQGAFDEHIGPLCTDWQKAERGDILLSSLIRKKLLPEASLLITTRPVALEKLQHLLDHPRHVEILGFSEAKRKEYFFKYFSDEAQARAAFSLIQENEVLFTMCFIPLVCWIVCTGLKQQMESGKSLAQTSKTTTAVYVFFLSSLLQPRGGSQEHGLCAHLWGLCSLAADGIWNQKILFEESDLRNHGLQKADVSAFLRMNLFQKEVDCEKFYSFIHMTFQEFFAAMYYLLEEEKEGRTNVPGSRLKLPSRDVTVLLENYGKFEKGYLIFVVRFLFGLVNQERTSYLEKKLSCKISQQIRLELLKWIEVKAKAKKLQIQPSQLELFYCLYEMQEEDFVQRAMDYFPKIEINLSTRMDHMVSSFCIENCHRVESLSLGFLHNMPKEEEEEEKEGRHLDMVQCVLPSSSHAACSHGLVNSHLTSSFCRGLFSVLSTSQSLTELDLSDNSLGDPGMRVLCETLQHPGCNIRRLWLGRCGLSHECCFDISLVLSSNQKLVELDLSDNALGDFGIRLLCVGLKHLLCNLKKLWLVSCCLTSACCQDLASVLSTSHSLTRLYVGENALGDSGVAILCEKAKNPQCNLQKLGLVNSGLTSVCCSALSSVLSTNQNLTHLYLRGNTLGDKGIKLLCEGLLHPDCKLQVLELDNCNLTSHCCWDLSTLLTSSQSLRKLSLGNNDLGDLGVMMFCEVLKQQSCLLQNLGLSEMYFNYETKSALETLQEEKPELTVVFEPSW

| SMILES | IC50 [µM] |
| --- | --- |
| CCc1cc(Cl)cc(O)c1-c1ccc(N2CCO[C@@H]3CCN(C)C[C@@H]32)nn1 [Example 461, 2-[6-[(4aS,8aR)-6-methyl-3,4a,5,7,8,8a-hexahydro-2H-pyrido[4,3-b][1,4]oxazin-4-yl]pyridazin-3-yl]-5-chloro-3-ethyl-phenol] | 0.001 |
| Cc1cc(N2CC[C@H]3CCN(C)C[C@H]32)nnc1-c1ccc(Cl)cc1O (single isomer, unassigned) [Example 469] | 0.001 |
| Cc1cc(C(F)(F)F)cc(O)c1-c1ccc(N2CC[C@H](O)CC2=O)nn1 [Example 286, (4S)-4-hydroxy-1-[6-[2-hydroxy-6-methyl-4-(trifluoromethyl)phenyl]pyridazin-3-yl]piperidin-2-one] | 0.151 |
| OC[C@@H]1CCN1c1ccc(-c2c(O)cc(Cl)cc2Cl)nn1 [Example 117, 3,5-dichloro-2-[6-[(2S)-2-(hydroxymethyl)azetidin-1-yl]pyridazin-3-yl]phenol] | 0.869 |
| Cc1cc(C)c(-c2ccc(N3CCO[C@@H]4CCN(CC(F)(F)F)C[C@@H]43)nn2)c(O)c1 [Example 355, 2-[6-[(4aS,8aR)-6-(2,2,2-trifluoroethyl)-3,4a,5,7,8,8a-hexahydro-2H-pyrido[4,3-b][1,4]oxazin-4-yl]pyridazin-3-yl]-3,5-dimethyl-phenol] | 1.17 |
| Cc1cc(C(F)(F)F)cc(O)c1-c1ccc(N2CCOc3c[nH]nc32)nn1 [Example 360, 2-[6-(5,6-dihydro-2H-pyrazolo[4,3-b][1,4]oxazin-7-yl)pyridazin-3-yl]-3-methyl-5-(trifluoromethyl)phenol] | 0.42 |
| Cc1cc(C(F)(F)F)cc(O)c1-c1ccc(N2CC3CCC2CN(C)C3)nn1 (centres unmarked) [Example 417, 3-methyl-2-[6-(3-methyl-3,6-diazabicyclo[3.2.2]nonan-6-yl)pyridazin-3-yl]-5-(trifluoromethyl)phenol] | 0.716 |
| Cc1cc(C)c(-c2ccc(N3C[C@H]4NCCO[C@@H]4C3)nn2)c(O)c1 [Example 125, 2-[6-[(4aR,7aR)-3,4,4a,5,7,7a-hexahydro-2H-pyrrolo[3,4-b][1,4]oxazin-6-yl]pyridazin-3-yl]-3,5-dimethylphenol] | 1.32 |
| CCN1CC[C@H]2CCN(c3cc(C)c(-c4ccc(C)cc4O)nn3)[C@H]2C1 (single isomer, unassigned) [Example 475] | 0.093 |
| Cc1cc(C(F)(F)F)cc(O)c1-c1ccc(N2CC[C@@H](CO)CC2=O)nn1 [Example 292, (4R)-4-(hydroxymethyl)-1-[6-[2-hydroxy-6-methyl-4-(trifluoromethyl)phenyl]pyridazin-3-yl]piperidin-2-one] | 0.265 |
| Cc1ccc(-c2nnc(N3CC[C@@H]4CCN(C(C)C)C[C@@H]43)cc2C)c(O)c1 (racemic) [Example 528, 5-methyl-2-[4-methyl-6-[rac-(3aS,7aR)-6-isopropyl-3,3a,4,5,7,7a-hexahydro-2H-pyrrolo[2,3-c]pyridin-1-yl]pyridazin-3-yl]phenol] | 0.0049 |
| Cc1cc(C(F)(F)F)cc(O)c1-c1ccc(N2CCC[C@H]3CCN(C)C[C@H]32)nn1 [Example 524, 2-[6-[(4aS,8aS)-7-methyl-2,3,4,4a,5,6,8,8a-octahydro-1,7-naphthyridin-1-yl]pyridazin-3-yl]-3-methyl-5-(trifluoromethyl)phenol] | 0.008 |
| CN1CC[C@@H]2CCN(c3ccc(-c4c(O)cccc4C(F)(F)F)nn3)[C@@H]2C1 (single isomer, unassigned) [Example 426] | 0.952 |
| Cc1cc(C)c(-c2nnc(N3CCO[C@H](CO)C3)cc2C)c(O)c1 [Example 112, 2-[6-[(2S)-2-(hydroxymethyl)morpholin-4-yl]-4-methyl-pyridazin-3-yl]-3,5-dimethyl-phenol] | 0.088 |
| CCc1cccc(O)c1-c1ccc(N2CCO[C@@H]3CCN(C(C)=O)C[C@@H]32)nn1 [Example 424, 1-[(4aS,8aR)-4-[6-(2-ethyl-6-hydroxy-phenyl)pyridazin-3-yl]-3,4a,5,7,8,8a-hexahydro-2H-pyrido[4,3-b][1,4]oxazin-6-yl]ethanone] | 0.396 |
| Cc1cc(C)c(-c2ccc(N3CCc4cccc(O)c43)nn2)c(O)c1 [Example 253, 1-[6-(2-hydroxy-4,6-dimethyl-phenyl)pyridazin-3-yl]indolin-7-ol] | 6.75 |
| Cc1cc(C(F)(F)F)cc(O)c1-c1ccc(N2CC[C@@H]3NCC[C@@H]32)nn1 (racemic) [Example 346, 3-methyl-2-[6-[rac-(3aS,6aS)-2,3,3a,5,6,6a-hexahydro-1H-pyrrolo[3,2-b]pyrrol-4-yl]pyridazin-3-yl]-5-(trifluoromethyl)phenol;hydrochloride] | 0.212 |
| CC(=O)N1C[C@H]2OCCN(c3ccc(-c4c(C)cc(C(F)(F)F)cc4O)nn3)[C@H]2C1 (single isomer, unassigned) [Example 352] | 0.375 |

Continued, values first:

| IC50 [µM] | SMILES |
| --- | --- |
| 3.5 | NC1CC2(CCN(c3ccc(-c4c(O)cc(Cl)cc4Cl)nn3)CC2)C1 [Example 32, 2-[6-(2-amino-7-azaspiro[3.5]nonan-7-yl)pyridazin-3-yl]-3,5-dichloro-phenol] |
| 0.366 | Cc1cc(C)c(-c2ccc(N3CCO[C@@H]4CCOC[C@@H]43)nn2)c(O)c1 (racemic) [Example 403, 3,5-dimethyl-2-[6-[rac-(4aS,8aR)-3,4a,5,7,8,8a-hexahydro-2H-pyrano[4,3-b][1,4]oxazin-4-yl]pyridazin-3-yl]phenol] |
| 1.77 | Cc1cc(C)c(-c2ccc(N3CC4(CCC(O)C4)C3)nn2)c(O)c1 (centres unmarked) [Example 84, 2-[6-(2-hydroxy-4,6-dimethyl-phenyl)pyridazin-3-yl]-2-azaspiro[3.4]octan-6-ol] |
| 0.185 | CCc1cc(C(F)(F)F)cc(O)c1-c1ccc(N2CC[C@H]3CCN(C)C[C@H]32)nn1 (single isomer, unassigned) [Example 491] |
| 0.922 | Cc1cc(C)c(-c2ccc(N3CCC[C@@H](N(C)C)C3)nn2)c(O)c1 [Example 148, 2-[6-[(3R)-3-(dimethylamino)-1-piperidyl]pyridazin-3-yl]-3,5-dimethyl-phenol] |
| 2.79 | Cc1cc(C)c(-c2ccc(N3CC4(CCC(O)CC4)C3)nn2)c(O)c1 [Example 83, 2-[6-(2-hydroxy-4,6-dimethyl-phenyl)pyridazin-3-yl]-2-azaspiro[3.5]nonan-7-ol] |
| 0.021 | Cc1cc(Cl)cc(O)c1-c1ccc(N2CCO[C@@H]3CCN(CCF)C[C@@H]32)nn1 [Example 522, 2-[6-[(4aS,8aR)-6-(2-fluoroethyl)-3,4a,5,7,8,8a-hexahydro-2H-pyrido[4,3-b][1,4]oxazin-4-yl]pyridazin-3-yl]-5-chloro-3-methyl-phenol] |
| 2.2 | Cc1ccc(-c2ccc(N3CCO[C@H](CO)C3)nn2)c(O)c1 [Example 92, 2-[6-[(2S)-2-(hydroxymethyl)morpholin-4-yl]pyridazin-3-yl]-5-methyl-phenol] |
| 2.02 | Cc1cc(C)c(-c2ccc(N3CCOC[C@H]3CN)nn2)c(O)c1 [Example 123, 2-[6-[(3R)-3-(aminomethyl)morpholin-4-yl]pyridazin-3-yl]-3,5-dimethyl-phenol; 2,2,2-trifluoroacetic acid] |
| 2.12 | Cc1cc(C)c(-c2ccc(N3CCCc4c3ccnc4O)nn2)c(O)c1 [Example 242, 1-[6-(2-hydroxy-4,6-dimethyl-phenyl)pyridazin-3-yl]-3,4-dihydro-2H-1,6-naphthyridin-5-ol] |
| 1.01 | Cc1cc(C)c(-c2ccc(N3CC[C@H]4CCN(C)C[C@H]43)nn2)c(O)c1 (single isomer, unassigned) [Example 383] |
| 1.27 | CC(=O)N1CC[C@@H]2CCN(c3ccc(-c4c(C)cc(C(F)(F)F)cc4O)nn3)[C@@H]2C1 [Example 370, 1-[(3aS,7aS)-1-[6-[2-hydroxy-6-methyl-4-(trifluoromethyl)phenyl]pyridazin-3-yl]-3,3a,4,5,7,7a-hexahydro-2H-pyrrolo[2,3-c]pyridin-6-yl]ethanone] |
| 0.002 | CCN1CC[C@H]2CCN(c3ccc(-c4c(O)cccc4C(F)(F)F)nn3)[C@H]2C1 (racemic) [Example 458, 2-[6-[rac-(3aS,7aR)-6-ethyl-3,3a,4,5,7,7a-hexahydro-2H-pyrrolo[2,3-c]pyridin-1-yl]pyridazin-3-yl]-3-(trifluoromethyl)phenol] |
| > 10 | Cc1ccc(O)c(-c2ccc(N3CCO[C@H](CO)C3)nn2)c1 [Example 102, 2-[6-[(2S)-2-(hydroxymethyl)morpholin-4-yl]pyridazin-3-yl]-4-methyl-phenol] |
| 1.54 | Cc1cc(C)c(-c2ccc(N3CC[C@H]3CO)nn2)c(O)c1 [Example 115, 2-[6-[(2S)-2-(hydroxymethyl)azetidin-1-yl]pyridazin-3-yl]-3,5-dimethyl-phenol] |
| 0.003 | CCN1CC[C@@H]2CCN(c3ccc(-c4c(C)cccc4O)nn3)[C@@H]2C1 (single isomer, unassigned) [Example 499] |
| 1.65 | Cc1cc(C)c(-c2ccc(N3CC[C@@]4(COCCN4C)C3)nn2)c(O)c1 [Example 451, 3,5-dimethyl-2-[6-[(5S)-6-methyl-9-oxa-2,6-diazaspiro[4.5]decan-2-yl]pyridazin-3-yl]phenol] |
| 1.08 | CCN1CC[C@H]2CCN(c3ccc(-c4c(C)cc(C)cc4O)nn3)[C@H]2C1 (single isomer, unassigned) [Example 504] |
| 0.124 | COc1cc(C)c(-c2ccc(N3CCO[C@H](CO)C3)nn2)c(O)c1 [Example 96, 2-[6-[(2S)-2-(hydroxymethyl)morpholin-4-yl]pyridazin-3-yl]-5-methoxy-3-methyl-phenol] |
| 0.631 | Oc1cc(Cl)ccc1-c1ccc(N2CCO[C@@H]3CCN(CCF)C[C@@H]32)nn1 [Example 525, 2-[6-[(4aS,8aR)-6-(2-fluoroethyl)-3,4a,5,7,8,8a-hexahydro-2H-pyrido[4,3-b][1,4]oxazin-4-yl]pyridazin-3-yl]-5-chloro-phenol] |
